Where two headings read alike, the source gives them in different places.
Target: T1, recombinant human NaV1.8 stably transfected HEK cells (Homo sapiens, UniProt Q9Y5Y9)
T1 construct: expressed in transfected cells; host or cells: HEK cells, stably transfected
Test: Compound profiling on NaV1.8, human NaV1.8 cell line, SyncroPatch384PE automated patch clamp assay (Example 102, first set of compounds, Table 16)
Assay type: cell-based
Details: human NaV1.8 HEK cells, Table 16 (first set of compounds)
How it was run: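 Automated whole-cell patch clamp on HEK cells precultured at 30 °C one day before recording; CsF-based internal, 140 mM NaCl external. 10-point curve, 20–0.001 μM final, 0.1% DMSO, 5 min exposure. IC50 for resting (P1, −120 mV hold) and inactivated (P2, after 10 s at −40 mV) block, normalized to 250 μM tetracaine and DMSO.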

[1] = inactivated state block (P2 measurement), read-out: P2IC50
[2] = resting state block (P1 measurement), read-out: P1IC50

T1 sequence (Q9Y5Y9 whole entry): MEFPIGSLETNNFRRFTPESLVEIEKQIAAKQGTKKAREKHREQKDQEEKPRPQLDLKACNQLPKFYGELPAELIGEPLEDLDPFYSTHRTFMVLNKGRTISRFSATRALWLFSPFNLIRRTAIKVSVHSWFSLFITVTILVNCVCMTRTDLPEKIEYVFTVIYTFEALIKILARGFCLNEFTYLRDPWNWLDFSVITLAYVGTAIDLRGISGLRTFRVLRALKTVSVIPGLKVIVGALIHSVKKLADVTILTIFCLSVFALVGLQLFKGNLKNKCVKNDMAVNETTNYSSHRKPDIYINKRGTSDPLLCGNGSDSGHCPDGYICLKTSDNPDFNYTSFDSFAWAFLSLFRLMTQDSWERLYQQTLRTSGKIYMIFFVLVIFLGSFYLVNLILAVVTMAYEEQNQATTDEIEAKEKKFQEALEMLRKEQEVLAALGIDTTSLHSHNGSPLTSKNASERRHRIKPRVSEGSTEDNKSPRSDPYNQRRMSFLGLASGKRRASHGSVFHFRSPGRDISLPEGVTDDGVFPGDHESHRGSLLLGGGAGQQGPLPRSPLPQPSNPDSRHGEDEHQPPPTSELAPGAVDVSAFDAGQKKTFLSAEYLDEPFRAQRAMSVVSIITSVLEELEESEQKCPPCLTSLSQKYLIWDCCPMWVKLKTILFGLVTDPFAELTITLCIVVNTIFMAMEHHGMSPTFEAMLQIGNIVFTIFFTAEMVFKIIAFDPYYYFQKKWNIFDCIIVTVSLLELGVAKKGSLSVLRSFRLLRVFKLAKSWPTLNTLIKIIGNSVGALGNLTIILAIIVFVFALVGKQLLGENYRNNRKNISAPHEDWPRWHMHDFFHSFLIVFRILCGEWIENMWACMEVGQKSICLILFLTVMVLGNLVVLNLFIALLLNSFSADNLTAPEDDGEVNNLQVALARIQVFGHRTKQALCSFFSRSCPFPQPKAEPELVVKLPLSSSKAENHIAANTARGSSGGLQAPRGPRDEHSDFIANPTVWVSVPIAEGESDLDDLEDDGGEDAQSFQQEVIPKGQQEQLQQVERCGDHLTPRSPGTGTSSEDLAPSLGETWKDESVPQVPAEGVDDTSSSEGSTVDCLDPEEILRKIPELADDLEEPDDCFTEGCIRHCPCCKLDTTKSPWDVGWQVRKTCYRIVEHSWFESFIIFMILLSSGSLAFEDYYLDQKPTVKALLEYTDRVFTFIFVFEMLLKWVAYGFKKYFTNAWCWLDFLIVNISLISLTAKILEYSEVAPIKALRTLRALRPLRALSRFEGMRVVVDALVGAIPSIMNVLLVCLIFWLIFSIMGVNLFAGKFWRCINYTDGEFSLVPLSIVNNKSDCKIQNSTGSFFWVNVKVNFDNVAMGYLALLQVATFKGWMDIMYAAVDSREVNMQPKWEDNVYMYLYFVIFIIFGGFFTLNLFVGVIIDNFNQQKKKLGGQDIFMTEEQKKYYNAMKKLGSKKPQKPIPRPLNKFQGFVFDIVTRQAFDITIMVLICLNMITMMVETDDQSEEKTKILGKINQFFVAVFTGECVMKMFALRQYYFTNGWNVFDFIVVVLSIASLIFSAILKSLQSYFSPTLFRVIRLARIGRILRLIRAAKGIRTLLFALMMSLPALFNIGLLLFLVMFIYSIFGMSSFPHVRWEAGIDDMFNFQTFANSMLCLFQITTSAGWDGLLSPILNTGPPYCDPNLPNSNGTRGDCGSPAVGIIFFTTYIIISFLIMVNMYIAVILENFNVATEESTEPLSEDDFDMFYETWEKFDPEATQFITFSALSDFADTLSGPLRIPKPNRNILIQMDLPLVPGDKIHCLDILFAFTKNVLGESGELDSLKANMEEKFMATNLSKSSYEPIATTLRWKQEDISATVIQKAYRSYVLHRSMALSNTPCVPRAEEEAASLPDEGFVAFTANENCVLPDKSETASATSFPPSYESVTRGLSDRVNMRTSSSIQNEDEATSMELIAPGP

Row | SMILES | IC50 [1] [nM] | IC50 [2] [nM]
1 | COc1cc(C#N)ccc1Oc1nnc(-c2ccc(C#N)cc2)c(C)c1C(=O)Nc1ccc[n+]([O-])c1 [Compound 1527, 3-(4-cyano-2-methoxy-phenoxy)-6-(4-cyanophenyl)-5-methyl-N-(1-oxidopyridin-1-ium-3-yl)pyridazine-4-carboxamide] | 20 to 40 | 20 to 40
2 | COc1c(Oc2ncc(C(F)(F)F)cc2C(=O)Nc2cccc(S(C)(=N)=O)c2)ccc(F)c1Cl (stereo not drawn) [Compound 1618] | ≤ 20 | ≤ 20
3 | Cc1c(C(F)(F)F)nnc(Oc2ccc(OC(C)C)c(F)c2F)c1C(=O)Nc1cccc(C(N)=O)c1 [Compound 1409] | ≤ 20 | ≤ 20
4 | COc1cc(C#N)ccc1Oc1nc(C(F)(F)F)nc(C)c1C(=O)Nc1cccc(C(N)=O)c1 [Compound 1742, N-(3-carbamoylphenyl)-4-(4-cyano-2-methoxy-phenoxy)-6-methyl-2-(trifluoromethyl)pyrimidine-5-carboxamide] | 20 to 40 | 40 to 200
5 | CC(C)Oc1ccc(Oc2ncc(C(F)(F)F)cc2C(=O)Nc2cccc(S(C)(=N)=O)c2)c(F)c1F (stereo not drawn) [Compound 1707] | ≤ 20 | ≤ 20
6 | COC(=O)C12CC(NC(=O)c3cc(C(F)(F)F)cnc3Oc3ccc(F)c(F)c3OC)(C1)C2 [Compound 1679] | 200 to 500 | 200 to 500
7 | COc1cc(C#N)ccc1Oc1nnc(C(F)(F)F)c(C)c1C(=O)Nc1cccc(C(=O)NCCO)c1 [Compound 1441, 3-(4-cyano-2-methoxy-phenoxy)-N-[3-(2-hydroxyethylcarbamoyl)phenyl]-5-methyl-6-(trifluoromethyl)pyridazine-4-carboxamide] | 200 to 500 | 200 to 500
8 | CS(=O)(=O)c1cccc(NC(=O)c2cc(C(F)(F)F)cnc2Oc2cccn3ccnc23)c1 [Compound 1599] | 200 to 500 | 200 to 500
9 | Cc1c(C(F)(F)F)nnc(Oc2c(F)cc(OC(F)(F)F)cc2F)c1C(=O)Nc1cccc(S(C)(=N)=O)c1 (stereo not drawn) [Compound 1514, 3-[2,6-difluoro-4-(trifluoromethoxy)phenoxy]-N-{3-[imino(methyl)oxo-λ^6-sulfanyl]phenyl}-5-methyl-6-(trifluoromethyl)pyridazine-4-carboxamide] | 40 to 200 | 40 to 200
10 | Cc1cc(F)ccc1Oc1nnc(C(C)O)c(C)c1C(=O)Nc1cccc(S(C)(=N)=O)c1 (stereo not drawn) [Compound 1547, 3-(4-fluoro-2-methyl-phenoxy)-6-(1-hydroxyethyl)-5-methyl-N-[3-(methylsulfonimidoyl)phenyl]pyridazine-4-carboxamide] | 200 to 500 | 200 to 500
11 | Cc1cc(C#N)ccc1Oc1nnc(C(F)(F)F)c(C)c1C(=O)Nc1cccc([S@@](C)(=N)=O)c1 [Compound 1525, 3-(4-cyano-2-methylphenoxy)-N-{3-[(S)-imino(methyl)oxo-λ^6-sulfanyl]phenyl}-5-methyl-6-(trifluoromethyl)pyridazine-4-carboxamide] | ≤ 20 | ≤ 20
12 | CCc1c(C(F)(F)F)nnc(Oc2ccc(F)cc2OC)c1C(=O)Nc1cccc([S@@](C)(=N)=O)c1 [Compound 1518, (S)-5-ethyl-3-(4-fluoro-2-methoxyphenoxy)-N-(3-(S-methylsulfonimidoyl)phenyl)-6-(trifluoromethyl)pyridazine-4-carboxamide] | ≤ 20 | ≤ 20
13 | COc1c(Oc2ncc(C(F)(F)F)cc2C(=O)NC23CC(C(N)=O)(C2)C3)ccc(F)c1F [Compound 1722, N-(3-carbamoyl-1-bicyclo[1.1.1]pentanyl)-2-(3,4-difluoro-2-methoxy-phenoxy)-5-(trifluoromethyl)pyridine-3-carboxamide] | 200 to 500 | 200 to 500
14 | Cc1cc(F)ccc1Oc1ncc(C(F)(F)F)c(C)c1C(=O)Nc1cccc(S(C)(=N)=O)c1 (stereo not drawn) [Compound 1557, 2-(4-fluoro-2-methylphenoxy)-4-methyl-N-(3-(S-methylsulfonimidoyl)phenyl)-5-(trifluoromethyl)nicotinamide] | ≤ 20 | ≤ 20
15 | COc1cc(Oc2ncc(C(F)(F)F)cc2C(=O)Nc2cccc(S(C)(=N)=O)c2)ccc1C#N (stereo not drawn) [Compound 1645] | 200 to 500 | 200 to 500
16 | Cc1c(C(F)(F)F)nnc(Oc2ccc(OC(F)(F)F)cc2F)c1C(=O)Nc1cccc(S(C)(=N)=O)c1 (single isomer, unassigned) [Compound 1496, 3-[2-fluoro-4-(trifluoromethoxy)phenoxy]-N-{3-[imino(methyl)oxo-λ^6-sulfanyl]phenyl}-5-methyl-6-(trifluoromethyl)pyridazine-4-carboxamide] | ≤ 20 | ≤ 20
17 | Cc1nc(C#N)ccc1Oc1ncc(C(F)(F)F)cc1C(=O)Nc1cccc(S(C)(=N)=O)c1 (stereo not drawn) [Compound 1701] | 20 to 40 | 20 to 40

Row | SMILES | IC50 [1] [nM] | IC50 [2] [nM]
18 | COc1c(Oc2ncc(Br)cc2C(=O)Nc2ccc(C(N)=O)cc2)ccc(F)c1F [Compound 1569, 5-bromo-N-(4-carbamoylphenyl)-2-(3,4-difluoro-2-methoxy-phenoxy)pyridine-3-carboxamide] | ≤ 20 | ≤ 20
19 | Cc1cc(F)ccc1Oc1ncc(Br)c(C)c1C(=O)Nc1cccc([S@](C)(=N)=O)c1 [Compound 1731, (R)-5-bromo-2-(4-fluoro-2-methylphenoxy)-4-methyl-N-(3-(S-methylsulfonimidoyl)phenyl)nicotinamide] | ≤ 20 | ≤ 20
20 | COCCNC(=O)c1cccc(NC(=O)c2c(Oc3ccc(C#N)cc3OC)nnc(C(F)(F)F)c2C)c1 [Compound 1443, 3-(4-cyano-2-methoxy-phenoxy)-N-[3-(2-methoxyethylcarbamoyl)phenyl]-5-methyl-6-(trifluoromethyl)pyridazine-4-carboxamide] | 200 to 500 | 200 to 500
21 | Cc1cc(F)ccc1Oc1ncc(C(F)(F)F)cc1C(=O)Nc1cccc([S@@](C)(=O)=NC(=O)CN(C)C(=O)OC(C)(C)C)c1 [Compound 1719, tert-butyl (R)-(2-(((3-(2-(4-fluoro-2-methylphenoxy)-5-(trifluoromethyl)nicotinamido)phenyl)(methyl)(oxo)-λ^6-sulfaneylidene)amino)-2-oxoethyl)(methyl)carbamate] | ≤ 20 | ≤ 20
22 | Cc1nc(Br)ccc1Oc1nnc(C(F)(F)F)c(C)c1C(=O)Nc1cccc(S(C)(=O)=O)c1 [Compound 1469, 3-[(6-bromo-2-methylpyridin-3-yl)oxy]-N-(3-methanesulfonylphenyl)-5-methyl-6-(trifluoromethyl)pyridazine-4-carboxamide] | ≤ 20 | ≤ 20
23 | Cc1c(C(F)(F)F)nnc(Oc2ccc(OC3CCC3)c(F)c2F)c1C(=O)Nc1cccc(S(C)(=N)=O)c1 (single isomer, unassigned) [Compound 1494, 3-(4-cyclobutoxy-2,3-difluorophenoxy)-N-{3-[imino(methyl)oxo-λ^6-sulfanyl]phenyl}-5-methyl-6-(trifluoromethyl)pyridazine-4-carboxamide] | 20 to 40 | ≤ 20
24 | COc1cc(C#N)ccc1Oc1nnc(-c2ncco2)c(C)c1C(=O)Nc1cccc(S(C)(=N)=O)c1 (stereo not drawn) [Compound 1462, 3-(4-cyano-2-methoxy-phenoxy)-5-methyl-N-[3-(methylsulfonimidoyl)phenyl]-6-oxazol-2-yl-pyridazine-4-carboxamide; formic acid] | 200 to 500 | 200 to 500
25 | Cc1c(C(F)(F)F)nnc(Oc2ccc(Cl)cc2F)c1C(=O)Nc1cccc(S(C)(=N)=O)c1 (single isomer, unassigned) [Compound 1471, 3-(4-chloro-2-fluoro-phenoxy)-5-methyl-N-[3-(methylsulfonimidoyl)phenyl]-6-(trifluoromethyl)pyridazine-4-carboxamide] | ≤ 20 | ≤ 20
26 | COc1cc(F)c(Oc2ncc(C(F)(F)F)cc2C(=O)Nc2cccc(C(N)=O)c2)cc1F [Compound 1638] | 200 to 500 | 200 to 500
27 | COc1cc(C#N)ccc1Oc1nc(C(F)(F)F)nc(C)c1C(=O)Nc1cccc(S(C)(=N)=O)c1 (stereo not drawn) [Compound 1743, 4-(4-cyano-2-methoxy-phenoxy)-6-methyl-N-[3-(methylsulfonimidoyl)phenyl]-2-(trifluoromethyl)pyrimidine-5-carboxamide] | ≤ 20 | ≤ 20
28 | Cc1c(C(F)(F)F)nnc(Oc2ccc(OC(C)C)c(F)c2F)c1C(=O)Nc1cccc(S(C)(=O)=O)c1 [Compound 1424] | ≤ 20 | ≤ 20
29 | COc1ccc(-c2nnc(Oc3ccc(C#N)cc3OC)c(C(=O)Nc3cccc(S(C)(=N)=O)c3)c2C)cc1 (stereo not drawn) [Compound 1454, 3-(4-cyano-2-methoxy-phenoxy)-6-(4-methoxyphenyl)-5-methyl-N-[3-(methylsulfonimidoyl)phenyl]pyridazine-4-carboxamide] | ≤ 20 | ≤ 20
30 | COc1cc(C#N)ccc1Oc1nnc(-c2ccc(C)cc2)c(C)c1C(=O)Nc1cccc([S@@](C)(=N)=O)c1 [Compound 1530, 3-(4-cyano-2-methoxyphenoxy)-N-{3-[(S)-imino(methyl)oxo-λ^6-sulfanyl]phenyl}-5-methyl-6-(4-methylphenyl)pyridazine-4-carboxamide] | 40 to 200 | 40 to 200
31 | CS(=O)(=O)c1cccc(NC(=O)c2cc(C(F)(F)F)cnc2Oc2cccc3c2OCCC3)c1 [Compound 1626] | 200 to 500 | 200 to 500
32 | Cc1cc(F)ccc1Oc1nnc(C(F)(F)F)c(C)c1C(=O)Nc1cccc(S(N)(=O)=O)c1 [Compound 1466, 3-(4-fluoro-2-methylphenoxy)-5-methyl-N-(3-sulfamoylphenyl)-6-(trifluoromethyl)pyridazine-4-carboxamide] | ≤ 20 | ≤ 20
33 | CS(=N)(=O)c1cccc(NC(=O)c2cc(C(F)(F)F)cnc2OC2CC3C(C2)C3(F)F)c1 (stereo not drawn) [Compound 1672] | 200 to 500 | 200 to 500
